Experimental data reported in US20210255193A1, “LYSINE REACTIVE PROBES AND USES THEREOF” (The Scripps Research Institute, priority 2017, published 2021).

Tests used:
[1] = target: T1, PFKL 6-phosphofructokinase, liver type (Homo sapiens, UniProt P17858); experiment: competitive isoTOP-ABPP; type: binding; settings: for isoTOP-ABPP reactivity ratio at lysine P17858_K315 / isoTOP-ABPP reactivity ratio at lysine P17858_K677 / isoTOP-ABPP reactivity ratio at lysine P17858_K715 / R value (DMSO/fragment) for probe 1 labeling: 231 sol; for isoTOP-ABPP ratio, lysine P17858_K677 / isoTOP-ABPP ratio, lysine P17858_K715 / isoTOP-ABPP ratio, lysine P17858_K315: 50 uM_231_sol_in vitro; for isoTOP-ABPP ratio, lysine P17858_K677: possible other lysine P17858_K681; for isoTOP-ABPP ratio, lysine P17858_K715: possible other lysine P17858_K714
T1 construct: isoTOP-ABPP experiments performed in cell lysates (in vitro); endogenous in cells; host or cells: soluble proteome of human cancer cell lines (MDA-MB-231; Ramos and Jurkat also prepared)
T1 sequence (P17858 1-780): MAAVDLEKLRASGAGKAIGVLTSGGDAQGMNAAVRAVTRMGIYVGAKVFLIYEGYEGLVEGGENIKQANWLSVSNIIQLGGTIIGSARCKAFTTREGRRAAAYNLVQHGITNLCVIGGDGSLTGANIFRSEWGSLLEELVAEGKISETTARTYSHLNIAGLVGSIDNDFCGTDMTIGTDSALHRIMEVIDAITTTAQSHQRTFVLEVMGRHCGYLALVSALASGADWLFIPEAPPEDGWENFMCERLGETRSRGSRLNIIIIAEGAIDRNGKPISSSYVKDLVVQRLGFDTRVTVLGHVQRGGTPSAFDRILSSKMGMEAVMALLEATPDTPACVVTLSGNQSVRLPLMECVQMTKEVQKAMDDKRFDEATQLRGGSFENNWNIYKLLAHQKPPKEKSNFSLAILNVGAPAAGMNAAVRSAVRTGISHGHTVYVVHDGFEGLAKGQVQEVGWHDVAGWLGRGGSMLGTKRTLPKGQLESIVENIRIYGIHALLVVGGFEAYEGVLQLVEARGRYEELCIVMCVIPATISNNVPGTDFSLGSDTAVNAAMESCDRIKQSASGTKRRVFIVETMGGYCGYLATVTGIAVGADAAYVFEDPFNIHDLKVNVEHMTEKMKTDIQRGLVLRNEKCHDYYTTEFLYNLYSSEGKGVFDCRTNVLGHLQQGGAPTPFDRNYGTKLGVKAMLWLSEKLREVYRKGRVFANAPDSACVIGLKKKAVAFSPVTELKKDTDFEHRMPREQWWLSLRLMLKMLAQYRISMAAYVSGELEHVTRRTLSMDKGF
Summary of the method: (§1)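 Cell lysate (0.5 ml) was pre-treated with fragment, 50 μM for activated esters or 100 μM for guanidinylating agents, versus DMSO, then labeled 1 h at ambient temperature with 0.1 mM STP-alkyne. Light/heavy TEV tags attached by CuAAC; R = DMSO/compound MS1 peak-area ratio, median per lysine.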

[2] = target: T2, RQCD1 Cell differentiation protein RCD1 homolog (Homo sapiens, UniProt Q92600); experiment: competitive isoTOP-ABPP; type: binding; settings: for isoTOP-ABPP ratio (R) at liganded lysine Q92600_K230: sol, 231; for isoTOP-ABPP ratio, lysine Q92600_K230: 50 uM_231_sol_in vitro
T2 construct: isoTOP-ABPP experiments performed in cell lysates (in vitro); endogenous in cells; host or cells: soluble proteome of human cancer cell lines (MDA-MB-231; Ramos and Jurkat also prepared)
Summary of the method: as §1

T2 sequence (Q92600 whole entry): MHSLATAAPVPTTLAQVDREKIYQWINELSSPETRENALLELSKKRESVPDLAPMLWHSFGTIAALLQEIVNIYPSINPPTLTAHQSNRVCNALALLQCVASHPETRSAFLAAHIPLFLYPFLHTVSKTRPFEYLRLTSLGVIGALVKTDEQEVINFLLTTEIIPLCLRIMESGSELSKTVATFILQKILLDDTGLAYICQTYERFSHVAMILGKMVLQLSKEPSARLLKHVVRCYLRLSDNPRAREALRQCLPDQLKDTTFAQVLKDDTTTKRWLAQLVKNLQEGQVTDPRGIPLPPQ

Structure (SMILES) | isoTOP-ABPP reactivity ratio at lysine P17858_K315 ([1]; 50 uM, in vitro) | isoTOP-ABPP reactivity ratio at lysine P17858_K677 ([1]; 50 uM, in vitro) | isoTOP-ABPP reactivity ratio at lysine Q92600_K230 ([2]; 50 uM, 231 sol, in vitro) | isoTOP-ABPP reactivity ratio at lysine P17858_K715 ([1]; 50 uM, in vitro) | other results
O=C(Oc1ccc([N+](=O)[O-])cc1[N+](=O)[O-])C(c1ccccc1)c1ccccc1 [fragment 30, 2,4-Dinitrophenyl 2,2-diphenylacetate] | 4.9 | 20.0 | 1.6 | – | –
O=C(Oc1ccc([N+](=O)[O-])cc1[N+](=O)[O-])c1cc(C(F)(F)F)cc(C(F)(F)F)c1 [fragment 31, 2,4-Dinitrophenyl 3,5-bis(trifluoromethyl)benzoate] | – | 2.5 | 1.0 | 2.3 | –
O=C(CN1C(=O)c2ccccc2C1=O)Oc1c(F)c(F)c(F)c(F)c1F [fragment 27, Pentafluorophenyl 2-(1,3-dioxoisoindolin-2-yl)acetate] | – | 18.1 | – | 1.3 | –
CC(=O)Oc1ccc([N+](=O)[O-])cc1[N+](=O)[O-] [fragment 43, 2,4-Dinitrophenyl acetate] | – | – | – | – | isoTOP-ABPP ratio (R) at liganded lysine P17858_K677 ([1]; 50 uM, in vitro, sol, 231): 3.2; isoTOP-ABPP ratio (R) at liganded lysine P17858_K715 ([1]; 50 uM, in vitro, sol, 231): 1.3; isoTOP-ABPP ratio (R) at liganded lysine Q92600_K230 ([2]; 50 uM, in vitro): 6.8
O=C(Oc1ccc([N+](=O)[O-])cc1[N+](=O)[O-])C(c1ccccc1)(c1ccccc1)c1ccccc1 [fragment 42, 2,4-Dinitrophenyl 2,2,2-triphenylacetate] | – | – | – | – | isoTOP-ABPP ratio (R) at liganded lysine P17858_K315 ([1]; 50 uM, in vitro, sol, 231): 0.7; isoTOP-ABPP ratio (R) at liganded lysine P17858_K677 ([1]; 50 uM, in vitro, sol, 231): 0.8; isoTOP-ABPP ratio (R) at liganded lysine P17858_K715 ([1]; 50 uM, in vitro, sol, 231): 0.9; isoTOP-ABPP ratio (R) at liganded lysine Q92600_K230 ([2]; 50 uM, in vitro): 0.8
O=C(Oc1c(F)c(F)c(F)c(F)c1F)c1cc(C(F)(F)F)cc(C(F)(F)F)c1 [fragment 21, Pentafluorophenyl 3,5-bis(trifluoromethyl)benzoate] | – | – | – | – | R value (DMSO/fragment) for probe 1 labeling ([1]; P17858_K677, 50 uM, in vitro): 0.9; R value (DMSO/fragment) for probe 1 labeling ([1]; P17858_K715, 50 uM, in vitro): 0.9; R value (DMSO/fragment) for probe 1 labeling ([2]; Q92600_K230, 50 uM, 231 sol, in vitro): 0.9
Cn1cc(CC(=O)Oc2ccc([N+](=O)[O-])cc2[N+](=O)[O-])c2ccccc21 [fragment 32, 2,4-Dinitrophenyl 2-(1-methyl-1H-indol-3-yl)acetate] | 20.0 | 11.9 | 10.2 | 7.7 | –
O=C(CCc1cn(-c2ccccc2)nc1-c1ccccc1)Oc1ccc([N+](=O)[O-])cc1[N+](=O)[O-] [fragment 29, 2,4-Dinitrophenyl 3-(1,3-diphenyl-1H-pyrazol-4-yl)propanoate] | 0.8 | 2.0 | 1.0 | 6.8 | –
O=C(Oc1c(F)c(F)c(F)c(F)c1F)C1CCN(C(=O)OCc2ccccc2)CC1 [fragment 24, 1-Benzyl 4-(pentafluorophenyl) piperidine-1,4-dicarboxylate] | 0.9 | 3.3 | – | 0.9 | –
NC(=O)c1cc(C(F)(F)F)cc(C(F)(F)F)c1 [fragment 51, reference compound] | – | – | – | – | isoTOP-ABPP ratio, lysine P17858_K677 [1]: 0.9; isoTOP-ABPP ratio, lysine P17858_K715 [1]: 0.9; isoTOP-ABPP ratio, lysine Q92600_K230 [2]: 0.9
N#Cc1ccc(C(=O)Oc2ccc([N+](=O)[O-])cc2[N+](=O)[O-])cc1 [fragment 44, 2,4-Dinitrophenyl 4-cyanobenzoate] | – | – | – | – | isoTOP-ABPP ratio, lysine P17858_K315 [1]: 0.8; isoTOP-ABPP ratio, lysine P17858_K677 [1]: 1.7; isoTOP-ABPP ratio, lysine P17858_K715 [1]: 1.8; isoTOP-ABPP ratio, lysine Q92600_K230 [2]: 1.0
CCn1cc(C(=O)Oc2c(F)c(F)c(F)c(F)c2F)c(=O)c2ccc(C)nc21 [fragment 28, Pentafluorophenyl 1-ethyl-7-methyl-4-oxo-1,4-dihydro-1,8-naphthyridine-3-carboxylate] | – | 1.1 | – | 1.5 | –
O=C(Oc1c(F)c(F)cc(F)c1F)c1cc(C(F)(F)F)cc(C(F)(F)F)c1 [fragment 48, 2,3,5,6-Tetrafluorophenyl 3,5-bis(trifluoromethyl)benzoate] | – | – | – | – | isoTOP-ABPP ratio, lysine P17858_K315 [1]: 0.7; isoTOP-ABPP ratio, lysine P17858_K677 [1]: 0.9; isoTOP-ABPP ratio, lysine P17858_K715 [1]: 1.0
